From patent US10485803B2, “Pyrimidine compounds as JAK kinase inhibitors” (THERAVANCE BIOPHARMA R&D IP, LLC, priority 2016, dated 2019)
Entries after “also recorded” stand apart in the source; their conditions may differ. Read-outs that look alike come from different tables or passages of the source. One block for each compound: values may come before it.

Columns and labels:
[1] = test system: IL-13 induced STAT6 phosphorylation in HT-29 human colorectal adenocarcinoma cells; assay: Cellular JAK potency assay: inhibition of IL-13; type: cell-based; settings: HT-29 cells
Protocol: The potency of test compounds for inhibition of the JAK-dependent cytokine interleuken-13 (IL-13) was assessed by measuring IL-13 (IL-13, R&D Systems) induced STAT6 phosphorylation in HT-29 human colorectal adenocarcinoma cells (ATCC).
The anti-STAT6 antibody (Cell Signaling Technologies) was conjugated to AlphaScreen acceptor beads (Perkin Elmer), while the anti-pSTAT6 (pTyr641) antibody (Cell Signaling Technologies) was biotinylated using EZ-Link Sulfo-NHS-Biotin (Thermo Scientific).
HT-29 cells were grown at 37° C. in a 5% CO2 humidified incubator in McCoy's 5a Modified medium (ATCC) supplemented with 10% FBS (Hyclone), 100 U/mL penicillin, 100 μg/mL streptomycin (Life Technologies), and 2 mM GlutaMAX (Life Technologies). On day 1 of the assay, cells were seeded at a 7,500 cells/well density in white poly-D-lysine-coated 384-well plates (Corning) with 25 μL medium, and were allowed to adhere overnight in the incubator. On day 2 of the assay, the medium was removed and replaced with 12 μL of assay buffer (Hank's Balanced Salt Solution/HBSS, 25 mM HEPES, and 1 mg/ml bovine serum albumin/BSA) containing dose-responses of test compounds. Compounds were serially diluted in DMSO and then diluted another 1000-fold in media to bring the final DMSO concentration to 0.1%. Cells were incubated with test compounds at 37° C. for 1 h, and followed by the addition of 12 μl of pre-warmed IL-13 (12 ng/ml in assay buffer) for stimulation. After incubating at 37° C. for 30 min, the assay buffer (containing compound and IL-13) was removed, and 10 μl of cell lysis buffer (25 mM HEPES, 0.1% SDS, 1% NP-40, 5 mM MgCl2, 1.3 mM EDTA, 1 mM EGTA, and supplement with Complete Ultra mini protease inhibitors and PhosSTOP from Roche Diagnostics). The plates were shaken at ambient temperature for 30 min before the addition of detection reagents. A mixture of biotin-anti-pSTAT6 and anti-STAT6 conjugated acceptor beads was added first and incubated at ambient temperature for 2 h, followed by the addition of streptavidin conjugated donor beads (Perkin Elmer). After a minimum of 2 h incubation, the assay plates were read on the EnVision plate reader.
Results were expressed as the negative logarithm of the IC50 value, pIC50.

[2] = Determination of absorption in cannulated rats; type: in vivo, Sprague Dawley rats; settings: rat, oral vs IV dose
Protocol: Oral bioavailability (F %), fraction absorbed (Fa%) and fraction escaping hepatic clearance (Fh%) were determined in Sprague Dawley rats from the following two studies:
(1) Pharmacokinetics in rats following an IV dose of test compound: Following IV dosing, plasma samples were typically collected from 0-6 hr. Drug levels were determined using an LC-MS-MS method. The resulting drug levels were used to compute the IV pharmacokinetic parameters: AUC IV and Dose IV.
(2) Rats that have been cannulated in their portal vein (PV) and also in their jugular vein (JV) were dosed orally with test compound. Following oral dosing, plasma samples were typically collected from 0-6 hr from both the portal vein and the jugular vein. Drug levels were determined using an LC-MS-MS method. The resulting drug levels were used to compute the following pharmacokinetic parameters: AUC PO PV, AUC PO JV, and Dose PO.
Using data derived from the above studies, the oral bioavailability F %, and the quantities Fa% and Fh% were calculated from the following formulas: F%=(AUC PO JV/AUC IV)*(Dose IV/Dose PO)*100 Fa%=(AUC PO PV/AUC IV)*(Dose IV/Dose PO)*100 Fh%=AUC PO JV/AUC PO PV • where: • AUC PO JV=Area under the curve following oral dose and plasma collected from the jugular vein • AUC PO PV=Area under the curve following oral dose and plasma collected from the portal vein • AUC IV=Area under the curve following an intravenous dose • Dose IV=Intravenous Dose in mg/kg • Dose PO=Oral Dose in mg/kg

[3] = test system: oxazolone-induced colitis; assay: Mouse model of oxazolone-induced colitis; type: in vivo, BALB/C mice; settings: mice, PO, 1, 3, and/or 10 mg/kg BID
Protocol: Oxazolone-induced colitis is an experimental model that has a histological resemblance to human ulcerative colitis (Heller et al. […], 2002, 17, 629-638). Adult BALB/C mice from Harlan were used in the assay. On day 1, animals were lightly anesthetized with isoflurane and the hairs between the shoulder were carefully removed before oxazolone (4%, 150 μL, 4:1 acetone: olive oil formulation) or vehicle solution was slowly applied for skin sensitization. Seven days after skin sensitization, the mice were fasted overnight, anesthetized with isoflurane inhalation, and a 1 mL syringe equipped with a 3.5-F catheter, filled with oxazolone solution, was inserted carefully about 4 cm into the colon of the mouse. Following insertion, 50 μL of the oxazolone solution (1%, 1:1 ethanol:water formulation) was injected very slowly (over 30 sec using an injection pump) into the colon. The catheter was removed and the mice were held vertically (head down) for 2 min to ensure that the entire oxazolone solution remained inside the colon. Drug treatment (PO, BID or TID) or vehicle was initiated a day prior to the oxazolone intrarectal (IR) challenge. Two-day post oxazolone intrarectal challenge, the Disease Activity Index (DAI) was assessed by treatment-blinded experimenters for each mouse according to the criteria score: stool consistency score (0, normal; 2, loose; 4, diarrhea), gross bleeding score (0, absence; 2, blood tinged; 4, presence), and weight loss score (0, none; 1, 1%-5%; 2, 5%-10%; 3, 10%-20%; 4, more than 20%); DAI=average of (stool consistency score+gross bleeding score+weight loss score).

JAK1 = JAK1 (Homo sapiens (Human), UniProt P23458); assay: LanthaScreen JAK biochemical assay, JAK1
Sequence of JAK1 (P23458 whole entry): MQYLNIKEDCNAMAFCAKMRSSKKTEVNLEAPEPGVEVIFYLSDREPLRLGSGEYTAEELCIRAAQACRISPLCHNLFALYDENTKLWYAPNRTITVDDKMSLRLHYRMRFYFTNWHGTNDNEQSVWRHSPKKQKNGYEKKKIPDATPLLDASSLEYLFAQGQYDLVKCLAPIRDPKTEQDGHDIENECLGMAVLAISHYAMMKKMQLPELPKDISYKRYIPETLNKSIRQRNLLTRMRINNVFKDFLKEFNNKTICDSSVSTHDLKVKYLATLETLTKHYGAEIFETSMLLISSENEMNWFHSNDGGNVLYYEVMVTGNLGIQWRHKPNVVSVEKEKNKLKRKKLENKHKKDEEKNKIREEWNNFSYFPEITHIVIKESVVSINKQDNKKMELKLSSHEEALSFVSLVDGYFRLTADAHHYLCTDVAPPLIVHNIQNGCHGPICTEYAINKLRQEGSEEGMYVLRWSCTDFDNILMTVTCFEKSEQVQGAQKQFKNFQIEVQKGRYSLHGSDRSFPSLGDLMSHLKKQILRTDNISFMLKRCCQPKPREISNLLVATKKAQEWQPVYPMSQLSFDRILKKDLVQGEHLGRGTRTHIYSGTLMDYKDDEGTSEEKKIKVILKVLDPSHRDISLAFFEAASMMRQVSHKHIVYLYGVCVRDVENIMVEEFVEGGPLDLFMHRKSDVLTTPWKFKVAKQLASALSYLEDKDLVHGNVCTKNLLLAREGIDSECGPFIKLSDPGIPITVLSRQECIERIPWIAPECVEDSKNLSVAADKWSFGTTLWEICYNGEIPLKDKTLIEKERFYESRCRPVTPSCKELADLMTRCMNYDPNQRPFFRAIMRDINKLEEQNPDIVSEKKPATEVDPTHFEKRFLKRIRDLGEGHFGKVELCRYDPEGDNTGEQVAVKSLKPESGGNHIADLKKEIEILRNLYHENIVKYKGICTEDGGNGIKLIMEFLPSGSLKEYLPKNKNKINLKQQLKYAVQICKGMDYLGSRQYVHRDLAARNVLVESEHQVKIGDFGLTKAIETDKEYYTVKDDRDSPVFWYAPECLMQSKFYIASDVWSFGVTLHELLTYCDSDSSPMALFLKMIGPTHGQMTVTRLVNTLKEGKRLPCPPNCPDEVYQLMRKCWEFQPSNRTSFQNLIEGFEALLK
Protocol: (§1) A panel of four LanthaScreen JAK biochemical assays (JAK1, 2, 3 and Tyk2) were carried in a common kinase reaction buffer (50 mM HEPES, pH 7.5, 0.01% Brij-35, 10 mM MgCl2, and 1 mM EGTA). Recombinant GST-tagged JAK enzymes and a GFP-tagged STAT1 peptide substrate were obtained from Life Technologies.
(§2) Serially diluted compounds were pre-incubated with each of the four JAK enzymes and the substrate in white 384-well microplates (Corning) at ambient temperature for 1 h. ATP was subsequently added to initiate the kinase reactions in 10 μl total volume, with 1% DMSO. […] The plates were allowed to incubate at ambient temperature for 1 h before being read on the EnVision reader (Perkin Elmer).
(§3) For dose-response analysis, percent inhibition data were plotted vs. compound concentrations, and IC50 values were determined from a 4-parameter robust fit model with the Prism software (GraphPad Software). Results were expressed as pIC50 (negative logarithm of IC50) and subsequently converted to pKi (negative logarithm of dissociation constant, Ki) using the Cheng-Prusoff equation.

JAK2 = JAK2 (Homo sapiens (Human), UniProt O60674); assay: LanthaScreen JAK biochemical assay, JAK2
Sequence of JAK2 (O60674 whole entry): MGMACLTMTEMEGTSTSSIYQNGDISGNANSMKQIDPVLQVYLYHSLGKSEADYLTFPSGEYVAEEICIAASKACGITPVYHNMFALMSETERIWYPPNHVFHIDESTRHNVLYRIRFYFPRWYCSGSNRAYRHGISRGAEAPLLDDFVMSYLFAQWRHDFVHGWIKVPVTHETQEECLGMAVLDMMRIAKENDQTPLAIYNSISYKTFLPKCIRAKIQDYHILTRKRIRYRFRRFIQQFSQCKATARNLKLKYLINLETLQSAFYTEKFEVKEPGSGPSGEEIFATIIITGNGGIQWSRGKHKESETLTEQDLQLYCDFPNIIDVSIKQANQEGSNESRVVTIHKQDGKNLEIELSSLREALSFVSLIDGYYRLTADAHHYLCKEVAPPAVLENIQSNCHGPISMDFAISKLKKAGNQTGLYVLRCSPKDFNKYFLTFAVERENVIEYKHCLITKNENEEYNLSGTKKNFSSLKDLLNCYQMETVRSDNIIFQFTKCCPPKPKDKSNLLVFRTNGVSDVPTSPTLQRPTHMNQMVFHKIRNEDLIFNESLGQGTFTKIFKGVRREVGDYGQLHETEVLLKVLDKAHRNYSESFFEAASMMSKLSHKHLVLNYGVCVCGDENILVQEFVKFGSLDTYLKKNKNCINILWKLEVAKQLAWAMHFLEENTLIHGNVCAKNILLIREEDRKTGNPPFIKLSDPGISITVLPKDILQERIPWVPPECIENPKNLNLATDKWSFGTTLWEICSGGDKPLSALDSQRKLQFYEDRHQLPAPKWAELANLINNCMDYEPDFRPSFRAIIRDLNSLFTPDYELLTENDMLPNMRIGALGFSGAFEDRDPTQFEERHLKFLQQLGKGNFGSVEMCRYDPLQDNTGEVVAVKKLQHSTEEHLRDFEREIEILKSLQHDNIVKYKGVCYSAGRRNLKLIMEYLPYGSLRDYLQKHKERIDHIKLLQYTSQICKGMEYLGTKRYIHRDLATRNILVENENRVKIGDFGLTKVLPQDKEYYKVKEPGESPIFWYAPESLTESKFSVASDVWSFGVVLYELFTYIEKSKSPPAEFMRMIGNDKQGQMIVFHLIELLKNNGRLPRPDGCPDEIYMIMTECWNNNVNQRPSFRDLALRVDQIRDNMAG
Protocol: as §1, §2, §3

JAK3 = JAK3 (Homo sapiens (Human), UniProt P52333); assay: LanthaScreen JAK biochemical assay, JAK3
Sequence of JAK3 (P52333 whole entry): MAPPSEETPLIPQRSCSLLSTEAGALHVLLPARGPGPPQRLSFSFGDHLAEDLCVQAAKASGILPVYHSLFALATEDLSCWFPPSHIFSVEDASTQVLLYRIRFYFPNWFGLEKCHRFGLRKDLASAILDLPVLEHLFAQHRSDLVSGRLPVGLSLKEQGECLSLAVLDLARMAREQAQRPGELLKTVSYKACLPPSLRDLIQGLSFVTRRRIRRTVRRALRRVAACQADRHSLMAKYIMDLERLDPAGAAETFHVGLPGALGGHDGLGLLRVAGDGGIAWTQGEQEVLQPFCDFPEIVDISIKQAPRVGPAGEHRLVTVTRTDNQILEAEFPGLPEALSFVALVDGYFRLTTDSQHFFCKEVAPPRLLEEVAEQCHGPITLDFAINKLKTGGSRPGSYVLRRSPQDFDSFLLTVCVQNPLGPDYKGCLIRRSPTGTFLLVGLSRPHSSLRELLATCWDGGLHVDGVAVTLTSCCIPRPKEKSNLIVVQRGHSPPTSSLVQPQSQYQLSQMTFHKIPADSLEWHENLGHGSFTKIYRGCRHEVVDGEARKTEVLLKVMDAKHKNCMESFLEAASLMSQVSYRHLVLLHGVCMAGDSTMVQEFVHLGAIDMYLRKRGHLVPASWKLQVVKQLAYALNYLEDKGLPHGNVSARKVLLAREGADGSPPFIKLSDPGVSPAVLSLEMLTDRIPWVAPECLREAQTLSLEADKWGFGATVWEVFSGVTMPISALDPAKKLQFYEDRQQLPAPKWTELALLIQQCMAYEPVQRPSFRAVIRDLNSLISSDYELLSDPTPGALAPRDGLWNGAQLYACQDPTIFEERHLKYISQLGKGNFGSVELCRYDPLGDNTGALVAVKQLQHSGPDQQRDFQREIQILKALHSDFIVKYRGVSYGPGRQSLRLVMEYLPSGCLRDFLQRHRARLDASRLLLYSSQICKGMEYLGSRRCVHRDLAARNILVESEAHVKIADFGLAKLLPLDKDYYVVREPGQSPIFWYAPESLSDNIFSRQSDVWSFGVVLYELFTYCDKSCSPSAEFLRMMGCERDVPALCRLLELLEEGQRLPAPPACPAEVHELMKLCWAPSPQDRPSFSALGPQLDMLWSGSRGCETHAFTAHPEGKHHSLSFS
Protocol: as §1, §2, §3

Tyk2 = Tyk2 (Homo sapiens (Human), UniProt P29597); assay: LanthaScreen JAK biochemical assay, Tyk2
Sequence of Tyk2 (P29597 whole entry): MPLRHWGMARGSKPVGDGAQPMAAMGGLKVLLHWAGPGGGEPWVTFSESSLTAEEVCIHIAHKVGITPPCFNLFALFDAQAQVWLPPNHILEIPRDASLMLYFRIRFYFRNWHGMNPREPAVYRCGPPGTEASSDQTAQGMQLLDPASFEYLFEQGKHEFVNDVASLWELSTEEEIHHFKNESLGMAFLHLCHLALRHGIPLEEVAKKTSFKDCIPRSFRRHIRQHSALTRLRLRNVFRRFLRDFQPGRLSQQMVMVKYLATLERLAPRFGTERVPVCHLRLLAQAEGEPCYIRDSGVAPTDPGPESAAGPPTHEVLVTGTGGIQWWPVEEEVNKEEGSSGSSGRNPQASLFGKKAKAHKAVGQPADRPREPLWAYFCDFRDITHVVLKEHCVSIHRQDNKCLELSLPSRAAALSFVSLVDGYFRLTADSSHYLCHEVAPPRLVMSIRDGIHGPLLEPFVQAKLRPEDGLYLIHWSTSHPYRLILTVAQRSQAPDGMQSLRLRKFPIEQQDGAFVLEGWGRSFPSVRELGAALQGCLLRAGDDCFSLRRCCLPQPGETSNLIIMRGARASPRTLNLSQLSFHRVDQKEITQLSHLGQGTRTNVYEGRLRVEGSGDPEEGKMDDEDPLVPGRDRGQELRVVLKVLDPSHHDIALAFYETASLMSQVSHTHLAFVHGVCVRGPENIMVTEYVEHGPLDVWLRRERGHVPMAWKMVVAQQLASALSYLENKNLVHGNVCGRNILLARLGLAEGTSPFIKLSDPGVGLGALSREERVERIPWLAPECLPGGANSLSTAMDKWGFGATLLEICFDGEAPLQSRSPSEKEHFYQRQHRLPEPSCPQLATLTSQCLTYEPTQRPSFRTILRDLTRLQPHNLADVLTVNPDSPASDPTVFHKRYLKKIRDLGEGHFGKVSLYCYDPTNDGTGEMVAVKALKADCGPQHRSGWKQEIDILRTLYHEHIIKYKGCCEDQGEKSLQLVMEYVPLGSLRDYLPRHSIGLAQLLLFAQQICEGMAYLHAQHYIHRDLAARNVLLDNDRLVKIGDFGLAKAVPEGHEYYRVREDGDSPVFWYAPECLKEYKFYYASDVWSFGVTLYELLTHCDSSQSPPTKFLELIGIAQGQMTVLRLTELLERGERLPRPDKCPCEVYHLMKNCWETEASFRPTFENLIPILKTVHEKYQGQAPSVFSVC
Protocol: as §1, §2, §3

[4] = Colon pharmacokinetics in rats; type: in vivo, Sprague Dawley rats; settings: rat, upon oral administration, dose not stated
[5] = test system: mouse splenic NK, B and T cells; settings: in vivo; for treatment effect on B and T cell populations: po
Protocol: Depletion of mouse splenic cells is an experimental model of immunosuppression (Kudlacz et al., Am. J. of Transplantation, 2004, 4, 51-57). The compound of Example 2 was assessed in the mouse splenic cell model following the same treatment paradigm as that used in the oxazolone-induced colitis model (Assay 8).
The compound (1, 10 and 100 mg/kg, BID) and tofacitinib (30 and 60 mg/kg, BID) as a positive control were dosed orally for three days to naïve mice. Spleens were harvested 1 h post last dose and crushed immediately for cell subtype staining. Prior to fixation, fluorophore-labelled antibodies for CD19 (FITC; B cells), CD3e (PE; pan T cells) and DX5 (APC; NK cells) were incubated with splenocyte samples from each animal to allow for simultaneous, multiple subtype % analysis on the flow cytometer. The number of total spleen cells for each animal was measured by Scepter™ 2.0 Handheld Automated Cell Counter.
The absolute number of lymphocyte subtype population (e.g., splenic B, T and NK cells) was calculated from the percentage of each subtype times total spleen cells for each animal. A one way ANOVA, with Dunnett's post hoc test, was used to compare the splenic lymphocytes number of the vehicle and test compound groups. The a level was set at p<0.05. Data were presented as the mean±SEM for each group.

[6] = in vivo
Description: The objective of this assay was to determine the epidermal, dermal and plasma pharmacokinetics of a test compound following a 24 hr exposure to intact mouse or mini-pig skin.
Twenty-four hours prior to dosing the hair was shaved from the back of 25 g male Balb/c mice exposing an area at of least 6 cm^2 (about 10% of body surface) and, in a separate experiment, of 10 kg Gottingen mini-pigs exposing an area of at least 450 cm^2 (about 10% of body surface). […] The skin was covered with an adhesive cover to prevent loss of compound to the cage or bedding.
Following 24 h exposure, the backs were gently washed with soap and water to remove non-absorbed drug and patted dry. Immediately following this washing, blood was drawn by cardiac puncture from the mice and via venipuncture from the mini-pigs. The outer skin (stratum corneum) was then removed by adhesive tape stripping. Upon exposure of the epidermis a 0.5 cm punch biopsy was taken. The epidermis and dermis were quickly separated, weighed and snap frozen.

[7] = test system: TPA-induced increase in ear thickness; assay: Topical TPA-induced irritant contact dermatitis model in mice; type: in vivo, Balb/c mice; settings: 6 hours after TPA
Protocol: The objective of this assay is to assess the anti-inflammatory effect in a model of acute dermatitis of test compounds being studied for cutaneous inflammatory conditions such as atopic dermatitis (Dong et al., J Pharmacol Exp Ther, 2013, 344, 436-446).
Topical dermal application of phorbol ester 12-O-tetradecanoylphorbol-13-acetate (TPA) in mice causes an inflammatory response that is characterized by edema and neutrophil influx at the early phase (2-24 h) and by epidermal cell proliferation at the later phase (24-48 h) (Griffiths et al., Agents and Actions, 1988, 25, 344-351). Female Balb/c mice were topically administered with either vehicle (1:7 DMSO:acetone) or 20 μL of a solution of TPA (2.5 μg) in vehicle on each ear. At 30 min before and 15 min after TPA administration, either vehicle or the compound of Example 2 at doses of 30, 100, 300, 1000, and 3000 μg in vehicle was applied topically to each ear. The degree of inflammation was assessed as the change in ear thickness at 6 hours after TPA application.

SMILES: COc1cc(Nc2cc(CO)[nH]n2)nc(N(C)[C@@H]2C[C@H]3CC[C@@H](C2)N3S(=O)(=O)N2CC(C#N)C2)n1 [Example 1, 1-(((1R,3s,5S)-3-((4-((5-(Hydroxymethyl)-1H-pyrazol-3-yl)amino)-6-methoxypyrimidin-2-yl)(methyl)amino)-8-azabicyclo[3.2.1]octan-8-yl)sulfonyl)azetidine-3-carbonitrile]
HT-29 (pIC50) [1]: B (B represents a pIC50 value between 6.7 and 7.5 (IC50 between 200 nM and 32 nM))
oral bioavailability (F %) ([2]; jugular vein): less than 5%
absorption at the portal vein (Fa%) [2]: less than 25%
decrease in DAI score as compared with vehicle treated animals [3]: did not exhibit a statistically significant decrease
JAK 1 (pKi) (JAK1): A (A represents a pKi value ≥10 (Ki≤0.1 nM))
JAK 2 (pKi) (JAK2): A (A represents a pKi value ≥10 (Ki≤0.1 nM))
JAK 3 (pKi) (JAK3): C (C represents a pKi value between 8 and 9 (Ki between 10 nM and 1 nM))
Tyk 2 (pKi) (Tyk2): B (B represents a pKi value between 9 and 10 (Ki between 1 nM and 0.1 nM))

SMILES: COc1cc(Nc2cc(CO)[nH]n2)nc(N(C)[C@@H]2C[C@H]3CCC[C@@H](C2)N3S(=O)(=O)N2CC(C#N)C2)n1 [Example 2, 1-(((1R,3s,5S)-3-((4-((5-(Hydroxymethyl)-1H-pyrazol-3-yl)amino)-6-methoxypyrimidin-2-yl)(methyl)amino)-9-azabicyclo[3.3.1]nonan-9-yl)sulfonyl)azetidine-3-carbonitrile]
absorption at the portal vein (Fa%) [2]: less than 25%
ratio of exposure in the colon to exposure in plasma [4]: greater than 250
decrease in DAI score as compared with vehicle treated animals [3]: demonstrated activity; also recorded: statistically significant decrease
effect of immunosuppression [5]: minimal effect of immunosuppression
treatment effect on B and T cell populations [5]: No treatment effect
duration of sustained dermal levels ([6]; Gottingen, minipig): at least 7 days
duration of sustained dermal levels ([6]; male, Balb/c, mouse): at least 2 days
inhibition of TPA-induced increase in ear thickness ([7]; topical 30-3000 μg per ear): dose- and concentration-dependent effect; also recorded: dose- and concentration-dependent inhibition
maximum statistically significant inhibition of TPA-induced increase in ear thickness ([7]; topical, 1000 μg dose): 41%

treatment effect on B and T cell populations [5]: No treatment effect
SMILES: C[C@@H]1CCN(C(=O)CC#N)C[C@@H]1N(C)c1ncnc2[nH]ccc12 [tofacitinib, reference compound]
